Legend:
[1] = tested on: A549/ATCC; test: NCI cytotoxicity screen, Non-Small Cell Lung Cancer panel; format: cell-based
Procedure: (§1) Cytotoxicity was performed at National Cancer Institute (NCI), Bethesda, USA as per their protocols.

[2] = tested on: EXVX; test: as above; format: cell-based; details: Homo sapiens
Procedure: as §1

[3] = tested on: HOP-62; test: as above; format: cell-based
Procedure: as §1

[4] = tested on: HOP-92; test: as above; format: cell-based
Procedure: as §1

[5] = tested on: NCI-H460; test: as above; format: cell-based
Procedure: as §1

[6] = tested on: COLO 205; test: NCI cytotoxicity screen, Colon Cancer panel; format: cell-based
Procedure: as §1

[7] = tested on: HCT-15; test: NCI cytotoxicity screen, Colon Cancer panel; format: cell-based; details: Homo sapiens
Procedure: as §1

[8] = tested on: HCC-2998; test: NCI cytotoxicity screen, Colon Cancer panel; format: cell-based, human
Procedure: as §1

[9] = tested on: KM12; test: NCI cytotoxicity screen, Colon Cancer panel; format: cell-based, human; details: five dose 0.01–100 µM
Procedure: as §1

[10] = tested on: SW-620; test: NCI cytotoxicity screen, Colon Cancer panel; format: cell-based, human; details: five dose 0.01–100 µM
Procedure: as §1

[11] = tested on: SF-268; test: NCI cytotoxicity screen, CNS Cancer panel; format: cell-based
Procedure: as §1

[12] = tested on: SF-295; test: NCI cytotoxicity screen, CNS Cancer panel; format: cell-based
Procedure: as §1

[13] = tested on: SF-539; test: NCI cytotoxicity screen, CNS Cancer panel; format: cell-based
Procedure: as §1

[14] = tested on: SNB-19; test: NCI cytotoxicity screen, CNS Cancer panel; format: cell-based
Procedure: as §1

[15] = tested on: SNB-75; test: NCI cytotoxicity screen, CNS Cancer panel; format: cell-based
Procedure: as §1

[16] = tested on: U251; test: NCI cytotoxicity screen, CNS Cancer panel; format: cell-based
Procedure: as §1

[17] = tested on: LOX IMVI; test: NCI cytotoxicity screen, Melanoma panel; format: cell-based, human
Procedure: as §1

[18] = tested on: M14; test: NCI cytotoxicity screen, Melanoma panel; format: cell-based, human
Procedure: as §1

[19] = tested on: UACC-62; test: NCI cytotoxicity screen, Melanoma panel; format: cell-based, human; details: five dose 0.01–100 µM
Procedure: as §1

[20] = tested on: MALME-3M; test: NCI cytotoxicity screen, Melanoma panel; format: cell-based
Procedure: as §1

[21] = tested on: MDA-MB-435; test: NCI cytotoxicity screen, Melanoma panel; format: cell-based; details: MDA-MB-435
Procedure: as §1

[22] = tested on: SK-MEL-28; test: NCI cytotoxicity screen, Melanoma panel; format: cell-based
Procedure: as §1

[23] = tested on: SK-MEL-2; test: NCI cytotoxicity screen, Melanoma panel; format: cell-based
Procedure: as §1

[24] = tested on: SK-MEL-5; test: NCI cytotoxicity screen, Melanoma panel; format: cell-based
Procedure: as §1

[25] = tested on: UACC-257; test: NCI cytotoxicity screen, Melanoma panel; format: cell-based
Procedure: as §1

[26] = tested on: IGROV1; test: NCI cytotoxicity screen, Ovarian Cancer panel; format: cell-based; details: Homo sapiens, IGROV-1, five dose 0.01–100 µM
Procedure: as §1

[27] = tested on: NCI/ADR-RES; test: NCI cytotoxicity screen, Ovarian Cancer panel; format: cell-based
Procedure: as §1

[28] = tested on: OVCAR-4; test: NCI cytotoxicity screen, Ovarian Cancer panel; format: cell-based
Procedure: as §1

[29] = tested on: OVCAR-5; test: NCI cytotoxicity screen, Ovarian Cancer panel; format: cell-based; details: Homo sapiens
Procedure: as §1

[30] = tested on: OVCAR-8; test: NCI cytotoxicity screen, Ovarian Cancer panel; format: cell-based
Procedure: as §1

[31] = tested on: SK-OV-3; test: NCI cytotoxicity screen, Ovarian Cancer panel; format: cell-based
Procedure: as §1

[32] = tested on: OVCAR-3; test: NCI cytotoxicity screen, Ovarian Cancer panel; format: cell-based, human
Procedure: as §1

[33] = tested on: 786-0; test: NCI cytotoxicity screen, Renal Cancer panel; format: cell-based, human; details: five dose 0.01–100 µM
Procedure: as §1

[34] = tested on: TK-10; test: NCI cytotoxicity screen, Renal Cancer panel; format: cell-based, human; details: five dose 0.01–100 µM
Procedure: as §1

[35] = tested on: A498; test: NCI cytotoxicity screen, Renal Cancer panel; format: cell-based
Procedure: as §1

[36] = tested on: ACHN; test: NCI cytotoxicity screen, Renal Cancer panel; format: cell-based
Procedure: as §1

[37] = tested on: CAKI-1; test: NCI cytotoxicity screen, Renal Cancer panel; format: cell-based
Procedure: as §1

[38] = tested on: RXF 393; test: NCI cytotoxicity screen, Renal Cancer panel; format: cell-based
Procedure: as §1

[39] = tested on: SN12C; test: NCI cytotoxicity screen, Renal Cancer panel; format: cell-based
Procedure: as §1

[40] = tested on: UO-31; test: NCI cytotoxicity screen, Renal Cancer panel; format: cell-based
Procedure: as §1

[41] = tested on: DU-145; test: NCI cytotoxicity screen, Prostate Cancer panel; format: cell-based, human
Procedure: as §1

[42] = tested on: PC-3; test: NCI cytotoxicity screen, Prostate Cancer panel; format: cell-based, human; details: five dose 0.01–100 µM
Procedure: as §1

[43] = Experimental log P, shake-flask method; format: physicochemical; details: n-octanol/phosphate buffer pH 7.4, read-out: Exp. Log P
Outline: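 Shake-flask partitioning between n-octanol and phosphate buffer pH 7.4, shaken 50 min, then centrifuged 35 min at 2500 rpm. Buffer-phase absorbance at each compound's λmax measured before and after partitioning. P calculated from absorbance drop and phase volume ratio.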

[44] = Homo sapiens, five dose 0.01–100 µM, read-out: LC50 (the source's name)
[45] = Homo sapiens, five dose 0.01–100 µM

SMILES: c1cn2cc(-c3ccc4ncn(C5CCCCC5)c4c3)nc(-c3ccc4c(c3)ncn4C3CCCCC3)c2n1 [Compound 31, 8-(1-cyclohexyl-1H-benzo[d]imidazol-5-yl)-6-(1-cyclohexyl-1H-benzo[d]imidazol-6-yl)imidazo[1,2-a]pyrazine]
- TGI ([1]; A549/ATCC, five dose 0.01–100 µM): 3.54 µM
- GI50 ([1]; Homo sapiens, A549): 1.94 µM
- CC50 ([1]; Homo sapiens, A549/ATCC, five dose 0.01–100 µM, read-out: LC50 (the source's name)): 6.46 µM
- GI50 [2]: 1.97 µM
- GI50 ([3]; Homo sapiens): 2 µM
- CC50 [3, 44]: 6.9 µM
- TGI ([3]; five dose 0.01–100 µM): 3.72 µM
- GI50 ([4]; Homo sapiens): 1.54 µM
- LC50 [4, 45]: 6.73 µM
- TGI ([4]; five dose 0.01–100 µM): 3.22 µM
- GI50 ([5]; Homo sapiens): 1.98 µM
- CC50 [5, 44]: 8.16 µM
- TGI ([5]; five dose 0.01–100 µM): 4.02 µM
- GI50 ([6]; Homo sapiens): 1.93 µM
- LC50 [6, 45]: 7.44 µM
- TGI ([6]; five dose 0.01–100 µM): 3.79 µM
- GI50 [7]: 2.07 µM
- TGI ([8]; HCC-2998, five dose 0.01–100 µM): 3.46 µM
- GI50 ([8]; Homo sapiens, HCC 2998): 1.81 µM
- GI50 ([9]; Homo sapiens): 2.01 µM
- TGI [9]: 3.83 µM
- GI50 ([10]; Homo sapiens): 2.08 µM
- TGI [10]: 3.97 µM
- GI50 ([11]; Homo sapiens): 1.59 µM
- CC50 [11, 44]: 6.23 µM
- TGI ([11]; five dose 0.01–100 µM): 3.15 µM
- GI50 ([12]; Homo sapiens): 1.71 µM
- CC50 [12, 44]: 5.8 µM
- TGI ([12]; five dose 0.01–100 µM): 3.15 µM
- GI50 ([13]; Homo sapiens): 1.63 µM
- LC50 (concentration killing 50% of cells) [13, 45]: 6.1 µM
- TGI ([13]; five dose 0.01–100 µM): 3.15 µM
- GI50 ([14]; Homo sapiens, SNB-19): 2.11 µM
- inhibition at 10 µM ([14]; Homo sapiens, SNB-19, read-out: Percent growth inhibition): 93.4%
- TGI ([14]; SNB-19, five dose 0.01–100 µM): 4.95 µM
- GI50 ([15]; Homo sapiens): 1.39 µM
- LC50 [15, 45]: 6.77 µM
- TGI ([15]; five dose 0.01–100 µM): 3.07 µM
- GI50 ([16]; Homo sapiens, U-251): 1.91 µM
- CC50 ([16]; Homo sapiens, U-251, U251, five dose 0.01–100 µM, read-out: LC50 (the source's name)): 6.98 µM
- TGI ([16]; U251, five dose 0.01–100 µM): 3.65 µM
- GI50 ([17]; Homo sapiens): 1.68 µM
- TGI ([17]; five dose 0.01–100 µM): 3.22 µM
- GI50 ([18]; Homo sapiens): 1.77 µM
- TGI ([18]; five dose 0.01–100 µM): 3.65 µM
- GI50 ([19]; Homo sapiens): 1.7 µM
- TGI [19]: 3.36 µM
- GI50 ([20]; Homo sapiens, Malme-3M): 2.11 µM
- CC50 ([20]; Homo sapiens, MALME-3M, five dose 0.01–100 µM, read-out: LC50 (the source's name)): 6.68 µM
- TGI ([20]; MALME-3M, five dose 0.01–100 µM): 3.75 µM
- GI50 ([21]; Homo sapiens): 1.77 µM
- CC50 [21, 44]: 7.11 µM
- TGI ([21]; five dose 0.01–100 µM): 3.55 µM
- GI50 ([22]; Homo sapiens): 1.81 µM
- CC50 [22, 44]: 6.43 µM
- TGI ([22]; five dose 0.01–100 µM): 3.41 µM
- GI50 ([23]; Homo sapiens): 1.74 µM
- CC50 [23, 44]: 6.45 µM
- TGI ([23]; five dose 0.01–100 µM): 3.35 µM
- GI50 ([24]; Homo sapiens): 1.49 µM
- CC50 [24, 44]: 5.39 µM
- TGI ([24]; five dose 0.01–100 µM): 2.83 µM
- GI50 ([25]; Homo sapiens): 2.1 µM
- LC50 [25, 45]: 6.24 µM
- TGI ([25]; five dose 0.01–100 µM): 3.62 µM
- GI50 [26]: 2.04 µM
- GI50 ([27]; Homo sapiens): 2.34 µM
- CC50 [27, 44]: > 1 µM
- inhibition at 10 µM ([27]; Homo sapiens, read-out: Percent growth inhibition): 98.9%
- TGI ([27]; five dose 0.01–100 µM): 7.33 µM
- GI50 ([28]; Homo sapiens, OVCAR-4): 2.17 µM
- inhibition at 10 µM ([28]; Homo sapiens, OVCAR-4, read-out: Percent growth inhibition): 97.2%
- CC50 ([28]; Homo sapiens, OVCAR-4, five dose 0.01–100 µM, read-out: LC50 (the source's name)): > 1 µM
- TGI ([28]; OVCAR-4, five dose 0.01–100 µM): 6.30 µM
- GI50 [29]: 2.43 µM
- CC50 ([29]; five dose 0.01–100 µM, read-out: LC50 (the source's name)): > 1 µM
- GI50 ([30]; Homo sapiens): 2.55 µM
- CC50 [30, 44]: > 1 µM
- TGI ([30]; five dose 0.01–100 µM): 9.49 µM
- GI50 ([31]; Homo sapiens): 2.27 µM
- CC50 [31, 44]: 7.42 µM
- TGI ([31]; five dose 0.01–100 µM): 4.10 µM
- GI50 ([32]; Homo sapiens, OVCAR-3): 1.83 µM
- CC50 ([32]; Homo sapiens, OVCAR-3, read-out: LC50): 6.2 µM
- TGI ([32]; OVCAR-3, five dose 0.01–100 µM): 3.36 µM
- GI50 ([33]; Homo sapiens): 1.73 µM
- TGI [33]: 3.47 µM
- GI50 ([34]; Homo sapiens): 2.02 µM
- TGI [34]: 3.65 µM
- GI50 ([35]; Homo sapiens): 1.77 µM
- CC50 [35, 44]: 5.85 µM
- TGI ([35]; five dose 0.01–100 µM): 3.22 µM
- GI50 ([36]; Homo sapiens): 1.68 µM
- CC50 [36, 44]: 5.61 µM
- TGI ([36]; five dose 0.01–100 µM): 3.07 µM
- TGI ([37]; CAKI-1, five dose 0.01–100 µM): 2.95 µM
- GI50 ([37]; Homo sapiens, CAKI-1): 1.46 µM
- inhibition at 10 µM ([37]; Homo sapiens, CAKI-1, read-out: Percent growth inhibition): 82.8%
- CC50 ([37]; Homo sapiens, CAKI-1, five dose 0.01–100 µM, read-out: LC50 (the source's name)): 5.97 µM
- GI50 ([38]; Homo sapiens): 1.51 µM
- CC50 [38, 44]: 5.94 µM
- TGI ([38]; five dose 0.01–100 µM): 2.99 µM
- GI50 ([39]; Homo sapiens): 2.05 µM
- CC50 [39, 44]: > 1 µM
- TGI ([39]; five dose 0.01–100 µM): 4.53 µM
- GI50 ([40]; Homo sapiens): 1.49 µM
- CC50 [40, 44]: 5.46 µM
- TGI ([40]; five dose 0.01–100 µM): 2.85 µM
- GI50 ([41]; Homo sapiens): 1.77 µM
- TGI ([41]; five dose 0.01–100 µM): 3.28 µM
- GI50 ([42]; Homo sapiens): 1.7 µM
- TGI [42]: 3.93 µM
- logP [43]: 1.77
